Data published in ChEMBL document CHEMBL1154730, “Novel quinolines and pyrimido[4,5-b]quinolines bearing biologically active sulfonamide moiety as a new class of antitumor agents” (Eur J Med Chem, 2010).
In brackets after ≈: the same amount, converted by molar mass.

Assays:
[1] = Cytotoxicity against mouse EAC cells assessed as non-viable cells at 25 ug/ml after 2 hrs by trypan blue exclusion; assay type: functional, Ehrlich
[2] = Cytotoxicity against mouse EAC cells assessed as non-viable cells at 10 ug/ml after 2 hrs by trypan blue exclusion; assay type: functional, Ehrlich
[3] = Cytotoxicity against mouse EAC cells assessed as non-viable cells at 50 ug/ml after 2 hrs by trypan blue exclusion; assay type: functional, Ehrlich
[4] = Cytotoxicity against mouse EAC cells after 2 hrs by trypan blue exclusion; assay type: functional, cell-based; conditions: ehrlich
[5] = Cytotoxicity against mouse EAC cells assessed as non-viable cells at 100 ug/ml after 2 hrs by trypan blue exclusion; assay type: functional, Ehrlich

Row | SMILES | Activity [1] [%] | Activity [2] [%] | Activity [3] [%] | IC50 [4] [µg/mL] | Activity [5] [%]
1 | Nc1nc(=S)[nH]c2c1C(c1ccc(Cl)cc1Cl)C1=C(CCCC1=O)N2c1ccc(S(N)(=O)=O)cc1 (stereo not given) | 50 | 30 | 100 | 25 (≈ 45.6 µM) | 100
2 | N#CC1=C(NC(=S)Nc2ccccc2)N(c2ccc(S(N)(=O)=O)cc2)C2=C(C(=O)CCC2)C1c1ccc(Cl)cc1Cl (stereo not given) | 50 | 40 | 55 | 25 (≈ 40 µM) | 95
3 | N#CC1=C(NC(=S)Nc2ccc(Cl)cc2)N(c2ccc(S(N)(=O)=O)cc2)C2=C(C(=O)CCC2)C1c1ccc(Cl)cc1Cl (stereo not given) | 60 | 30 | 100 | 40 (≈ 60.7 µM) | 100
4 | N=c1c2c([nH]c(=S)n1-c1ccccc1)N(c1ccc(S(N)(=O)=O)cc1)C1=C(C(=O)CCC1)C2c1ccc(Cl)cc1Cl (stereo not given) | 30 | 10 | 50 | 50 (≈ 80.1 µM) | 60
5 | N=c1c2c([nH]c(=S)n1-c1ccc(Br)cc1)N(c1ccc(S(N)(=O)=O)cc1)C1=C(C(=O)CCC1)C2c1ccc(Cl)cc1Cl (stereo not given) | 30 | 30 | 50 | 50 (≈ 71.1 µM) | 70
6 | NS(=O)(=O)c1ccc(N2C3=C(C(=O)CCC3)C(c3ccc(Cl)cc3Cl)c3c2[nH]c(=S)[nH]c3=S)cc1 (stereo not given) | 30 | 11 | 39 | > 100 | 57
7 | N#CC1=C(NC(=O)CCC(=O)O)N(c2ccc(S(N)(=O)=O)cc2)C2=C(C(=O)CCC2)C1c1ccc(Cl)cc1Cl (stereo not given) | 35 | 20 | 50 | 50 (≈ 84.8 µM) | 60
8 | CCCCNC(=S)NC1=C(C#N)C(c2ccc(Cl)cc2Cl)C2=C(CCCC2=O)N1c1ccc(S(N)(=O)=O)cc1 (stereo not given) | 30 | 30 | 35 | > 100 | 40
9 | Nc1nc(=O)[nH]c2c1C(c1ccc(Cl)cc1Cl)C1=C(CCCC1=O)N2c1ccc(S(N)(=O)=O)cc1 (stereo not given) | 80 | 80 | 90 | 6.9 (≈ 13 µM) | 100
10 | C=CCn1c(=S)[nH]c2c(c1=N)C(c1ccc(Cl)cc1Cl)C1=C(CCCC1=O)N2c1ccc(S(N)(=O)=O)cc1 (stereo not given) | 40 | 30 | 50 | 50 (≈ 85 µM) | 75
11 | C=CCNC(=S)NC1=C(C#N)C(c2ccc(Cl)cc2Cl)C2=C(CCCC2=O)N1c1ccc(S(N)(=O)=O)cc1 (stereo not given) | 30 | 10 | 33 | > 100 | 40
12 | CCCCn1c(=S)[nH]c2c(c1=N)C(c1ccc(Cl)cc1Cl)C1=C(CCCC1=O)N2c1ccc(S(N)(=O)=O)cc1 (stereo not given) | 70 | 70 | 80 | 7 (≈ 11.6 µM) | 80
13 | N#CC1=C(N)N(c2ccc(S(N)(=O)=O)cc2)C2=C(C(=O)CCC2)C1c1ccc(Cl)cc1Cl (stereo not given) | 50 | 40 | 65 | 25 (≈ 51.1 µM) | 95
14 | N#CC1=C(N2C(=O)CCC2=O)N(c2ccc(S(N)(=O)=O)cc2)C2=C(C(=O)CCC2)C1c1ccc(Cl)cc1Cl (stereo not given) | 50 | 20 | 70 | 25 (≈ 43.7 µM) | 90
15 | N#CC1=C(NC(N)=O)N(c2ccc(S(N)(=O)=O)cc2)C2=C(C(=O)CCC2)C1c1ccc(Cl)cc1Cl (stereo not given) | 35 | 20 | 40 | 75 (≈ 141 µM) | 60
16 | N#CC1=C(NC(=S)Nc2ccc(Br)cc2)N(c2ccc(S(N)(=O)=O)cc2)C2=C(C(=O)CCC2)C1c1ccc(Cl)cc1Cl (stereo not given) | 50 | 50 | 90 | 25 (≈ 35.5 µM) | 90
17 | N#CC1=C(NS(=O)(=O)c2ccc([N+](=O)[O-])cc2)N(c2ccc(S(N)(=O)=O)cc2)C2=C(C(=O)CCC2)C1c1ccc(Cl)cc1Cl (stereo not given) | 85 | 50 | 85 | 20 (≈ 29.6 µM) | 90
18 | N#CC1=C(NS(=O)(=O)c2ccc(Br)cc2)N(c2ccc(S(N)(=O)=O)cc2)C2=C(C(=O)CCC2)C1c1ccc(Cl)cc1Cl (stereo not given) | 90 | 90 | 90 | 5.5 (≈ 7.76 µM) | 100
19 | N=c1c2c([nH]c(=S)n1-c1ccc(Cl)cc1)N(c1ccc(S(N)(=O)=O)cc1)C1=C(C(=O)CCC1)C2c1ccc(Cl)cc1Cl (stereo not given) | 60 | 50 | 90 | 10 (≈ 15.2 µM) | 95
20 | COc1cccc2c1C(=O)c1c(O)c3c(c(O)c1C2=O)C[C@@](O)(C(=O)CO)C[C@@H]3O[C@H]1C[C@H](N)[C@H](O)[C@H](C)O1 [DOXORUBICIN] | 32 | 19 | 68 | 38 (≈ 69.9 µM) | 100
